Source: PubChem BioAssay AID651549 (Sanford-Burnham Center for Chemical Genomics, 2012)
The source made the active and inactive calls.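 How the source made its calls: active means compounds blocking the PEG3 reporter with IC50 up to 10 µM at either incubation, yet sparing the GAPDH control reporter; inactive means the rest.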

Test: GAPDH and PEG-3 promoter luciferase suppression – cell-based, luminescence, set 2, counter-screen for PEG-3 promoter inhibitor project, dose response (AID 651549)
Settings: HeLa PEG-Prom-luciferase or GAPDH-reporter, 6/24 h

| Compound | IC50 (GAPDH, run 1, 6 h) | IC50 (GAPDH, run 1, 24 h) | IC50 (PEG-3, run 1, 6 h) | IC50 (PEG-3, run 1, 24 h) |
| --- | --- | --- | --- | --- |
| CCSc1nc2ccccc2n1C(=O)/C=C\c1ccc(OC)c(OC)c1 | 6.8 µM | 5.39 µM | 6.76 µM | 6.91 µM |
| Cc1cccc(NC(=O)c2nc(S(=O)(=O)Cc3ccccc3)ncc2Cl)c1 | 8.24 µM | 7.13 µM | inactive | inactive |
| O=C(O)c1ccc(Nc2nc3c(s2)CCCC3)cc1 | 8.49 µM | 9.1 µM | inactive | inactive |
| CN1OC[C@@H]2CN(S(=O)(=O)c3cccc(C(F)(F)F)c3)[C@H](c3ccc(-c4cc5ccccc5o4)cc3)C[C@@H]21 | inactive | 6.66 µM | inactive | inactive |
| COCCn1c(C)cc(C(=O)COc2ccc(C)nc2[N+](=O)[O-])c1C | inactive | inactive | inactive | inactive |
| Cc1ccc2nc(NC(=O)CSCC(=O)OCC(=O)c3ccccc3)sc2c1 | inactive | 5.63 µM | inactive | inactive |
| Cc1cccc(-n2cc(-c3ccccc3)c3c(N4CCOCC4)ncnc32)c1 | > 99 µM (inactive) | inactive | > 99 µM (inactive) | inactive |
| Cc1cccc(NC(=O)c2oc3ccc(S(=O)(=O)N4CCOCC4)cc3c2C)c1C | inactive | 6.39 µM | > 99 µM (inactive) | 8.47 µM |

More lines, in order of falling IC50 (GAPDH, run 1, 24 h), values ahead:

| IC50 (GAPDH, run 1, 6 h) | IC50 (GAPDH, run 1, 24 h) | IC50 (PEG-3, run 1, 6 h) | IC50 (PEG-3, run 1, 24 h) | Compound |
| --- | --- | --- | --- | --- |
| inactive | 4.79 µM | > 99 µM (inactive) | inactive | Cc1cc(C)c(C)c(S(=O)(=O)N2CCN(C(=O)c3cc(=O)[nH]c4ccccc34)CC2)c1C |
| > 99 µM (inactive) | 4.26 µM | > 99 µM (inactive) | 5.57 µM | CS(=O)(=O)Nc1cccc(NC(=O)C2Cc3c(-c4ccccc4)ccnc3O2)c1 (configuration not stated) |
| inactive | 2.98 µM | inactive | inactive | COc1ccc(-n2cc(-c3ccccc3)c3c(N4CCOCC4)ncnc32)cc1 |
| inactive | 2.43 µM | > 99 µM (inactive) | 5.44 µM | Cc1cc(C)cc(NS(=O)(=O)c2ccc3[nH]cc(C(=O)NCc4ccco4)c(=O)c3c2)c1 |
| inactive | 1.74 µM | > 99 µM (inactive) | 2.21 µM | Cc1nc2c(-c3ccc(Cl)cc3)c(C)[nH]n2c(=O)c1Cc1ccccc1 |
